The text below walks through data of ChEMBL document CHEMBL3102750 (J Med Chem, 2013).

Molecules are shown by their SMILES. Bounds are passed on as bounds.

What all share (assay type): functional, cell-based
Test [1] has as its target T1, Muscarinic acetylcholine receptor M5 (Homo sapiens) (UniProt P08912).
T1 sequence (whole entry): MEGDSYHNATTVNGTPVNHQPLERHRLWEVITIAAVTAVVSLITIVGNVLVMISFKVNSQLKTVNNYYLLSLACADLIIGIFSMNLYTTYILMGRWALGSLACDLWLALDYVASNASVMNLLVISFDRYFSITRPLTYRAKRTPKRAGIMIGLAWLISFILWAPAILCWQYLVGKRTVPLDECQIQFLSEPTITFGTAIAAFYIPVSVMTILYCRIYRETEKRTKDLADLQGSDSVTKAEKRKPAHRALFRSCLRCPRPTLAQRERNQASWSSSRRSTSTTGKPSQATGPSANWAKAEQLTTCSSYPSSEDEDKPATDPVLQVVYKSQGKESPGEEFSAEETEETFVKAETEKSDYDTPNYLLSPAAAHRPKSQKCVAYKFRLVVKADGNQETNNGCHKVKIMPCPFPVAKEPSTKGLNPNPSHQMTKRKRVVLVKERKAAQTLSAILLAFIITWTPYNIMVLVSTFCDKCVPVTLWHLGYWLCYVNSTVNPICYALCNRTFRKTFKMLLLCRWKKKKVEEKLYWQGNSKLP
Briefly: Negative allosteric modulation of human muscarinic acetylcholine receptor M5 expressed in CHO cells assessed as reduction of acetylcholine-induced calcium mobilization at 10 uM incubated for 150 secs prior to acetylcholine induction by Fluo-4 AM staining-based fluorescence assay relative to control. On the set-up: scale not given: the % may be the effect or the level left.

Test [2] concerns the target T2, Muscarinic acetylcholine receptor M5 (Homo sapiens, UniProt P08912).
T2 sequence (P08912 whole entry): T1 sequence (whole entry)
The test is described as follows: Negative allosteric modulation of human muscarinic acetylcholine receptor M5 expressed in CHO cells assessed as inhibition of acetylcholine-induced calcium mobilization incubated for 150 secs prior to acetylcholine induction by Fluo-4 AM staining-based fluorescence assay.

Test [3] has as its target Muscarinic acetylcholine receptor M3 (Homo sapiens, UniProt P20309). The test is described as follows: Negative allosteric modulation of human muscarinic acetylcholine receptor M3 expressed in CHO cells assessed as inhibition of acetylcholine-induced calcium mobilization incubated for 150 secs prior to acetylcholine induction by Fluo-4 AM staining-based fluorescence assay.

For test [4], the target named is T3, Muscarinic acetylcholine receptor M1 (Homo sapiens, UniProt P11229).
T3 sequence (P11229 whole entry): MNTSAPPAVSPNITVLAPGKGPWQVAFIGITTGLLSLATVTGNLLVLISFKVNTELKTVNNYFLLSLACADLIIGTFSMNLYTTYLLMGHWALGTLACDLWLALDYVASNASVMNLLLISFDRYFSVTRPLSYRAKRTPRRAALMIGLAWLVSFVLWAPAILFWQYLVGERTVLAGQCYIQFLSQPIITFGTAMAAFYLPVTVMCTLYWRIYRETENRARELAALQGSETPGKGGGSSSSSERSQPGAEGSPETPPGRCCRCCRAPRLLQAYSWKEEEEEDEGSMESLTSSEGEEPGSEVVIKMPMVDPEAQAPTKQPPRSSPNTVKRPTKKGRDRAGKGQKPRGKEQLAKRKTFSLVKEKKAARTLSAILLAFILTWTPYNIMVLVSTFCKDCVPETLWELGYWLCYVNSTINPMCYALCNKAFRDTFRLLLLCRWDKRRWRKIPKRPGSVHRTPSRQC
Briefly: Negative allosteric modulation of human muscarinic acetylcholine receptor M1 expressed in CHO cells assessed as inhibition of acetylcholine-induced calcium mobilization incubated for 150 secs prior to acetylcholine induction by Fluo-4 AM staining-based fluorescence assay.

The target in test [5] is T4, Muscarinic acetylcholine receptor M2 (Homo sapiens, UniProt P08172).
T4 sequence (P08172 whole entry): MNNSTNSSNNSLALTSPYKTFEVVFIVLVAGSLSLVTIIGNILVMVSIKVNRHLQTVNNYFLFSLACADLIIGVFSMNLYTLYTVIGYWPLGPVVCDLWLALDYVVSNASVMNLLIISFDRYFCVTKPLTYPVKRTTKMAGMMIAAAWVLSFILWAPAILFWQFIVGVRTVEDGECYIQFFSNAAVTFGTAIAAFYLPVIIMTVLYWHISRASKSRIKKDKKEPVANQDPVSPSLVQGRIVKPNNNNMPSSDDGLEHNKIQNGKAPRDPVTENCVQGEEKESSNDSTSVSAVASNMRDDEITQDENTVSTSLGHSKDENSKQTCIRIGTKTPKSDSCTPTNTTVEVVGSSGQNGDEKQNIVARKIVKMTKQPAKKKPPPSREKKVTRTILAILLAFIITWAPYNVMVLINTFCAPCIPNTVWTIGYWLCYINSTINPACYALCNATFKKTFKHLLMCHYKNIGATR
The test is described as follows: Negative allosteric modulation of human muscarinic acetylcholine receptor M2 expressed in CHO cells assessed as inhibition of acetylcholine-induced calcium mobilization incubated for 150 secs prior to acetylcholine induction by Fluo-4 AM staining-based fluorescence assay.

For test [6], the target named is T5, Muscarinic acetylcholine receptor M5 (Rattus norvegicus, UniProt P08911).
T5 sequence (P08911 whole entry): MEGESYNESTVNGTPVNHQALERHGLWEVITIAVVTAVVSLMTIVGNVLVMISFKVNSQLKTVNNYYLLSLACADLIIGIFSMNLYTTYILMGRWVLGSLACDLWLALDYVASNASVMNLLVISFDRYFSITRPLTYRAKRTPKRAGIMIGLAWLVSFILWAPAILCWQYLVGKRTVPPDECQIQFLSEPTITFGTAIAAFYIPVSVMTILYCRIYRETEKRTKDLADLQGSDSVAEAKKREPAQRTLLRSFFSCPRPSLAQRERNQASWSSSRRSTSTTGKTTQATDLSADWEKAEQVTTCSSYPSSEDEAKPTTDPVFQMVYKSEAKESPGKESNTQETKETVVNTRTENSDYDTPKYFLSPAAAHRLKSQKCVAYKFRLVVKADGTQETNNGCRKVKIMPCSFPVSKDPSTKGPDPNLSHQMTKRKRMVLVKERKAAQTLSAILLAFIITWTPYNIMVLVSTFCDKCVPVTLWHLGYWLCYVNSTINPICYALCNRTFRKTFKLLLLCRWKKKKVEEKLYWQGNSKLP
Briefly: Negative allosteric modulation of rat muscarinic acetylcholine receptor M5 expressed in CHO cells assessed as inhibition of acetylcholine-induced calcium mobilization incubated for 150 secs prior to acetylcholine induction by Fluo-4 AM staining-based fluorescence assay.

For test [7], the target named is T6, Muscarinic acetylcholine receptor M4 (Homo sapiens, UniProt P08173).
T6 sequence (P08173 whole entry): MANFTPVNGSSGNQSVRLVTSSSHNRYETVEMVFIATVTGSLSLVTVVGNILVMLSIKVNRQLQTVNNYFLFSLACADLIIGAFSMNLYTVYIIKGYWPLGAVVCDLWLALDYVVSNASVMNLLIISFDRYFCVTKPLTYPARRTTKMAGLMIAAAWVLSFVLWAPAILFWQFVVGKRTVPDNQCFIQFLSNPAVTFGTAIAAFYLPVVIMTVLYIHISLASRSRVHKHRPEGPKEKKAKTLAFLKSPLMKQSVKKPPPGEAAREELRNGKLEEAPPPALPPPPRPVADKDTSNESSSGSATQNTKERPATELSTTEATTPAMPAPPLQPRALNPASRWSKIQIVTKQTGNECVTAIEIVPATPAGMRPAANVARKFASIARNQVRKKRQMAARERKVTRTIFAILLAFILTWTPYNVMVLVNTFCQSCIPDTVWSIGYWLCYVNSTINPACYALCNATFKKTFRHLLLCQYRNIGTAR
Briefly: Negative allosteric modulation of human muscarinic acetylcholine receptor M4 expressed in CHO cells assessed as inhibition of acetylcholine-induced calcium mobilization incubated for 150 secs prior to acetylcholine induction by Fluo-4 AM staining-based fluorescence assay.

Chain of Muscarinic acetylcholine receptor M3 (P20309 whole entry): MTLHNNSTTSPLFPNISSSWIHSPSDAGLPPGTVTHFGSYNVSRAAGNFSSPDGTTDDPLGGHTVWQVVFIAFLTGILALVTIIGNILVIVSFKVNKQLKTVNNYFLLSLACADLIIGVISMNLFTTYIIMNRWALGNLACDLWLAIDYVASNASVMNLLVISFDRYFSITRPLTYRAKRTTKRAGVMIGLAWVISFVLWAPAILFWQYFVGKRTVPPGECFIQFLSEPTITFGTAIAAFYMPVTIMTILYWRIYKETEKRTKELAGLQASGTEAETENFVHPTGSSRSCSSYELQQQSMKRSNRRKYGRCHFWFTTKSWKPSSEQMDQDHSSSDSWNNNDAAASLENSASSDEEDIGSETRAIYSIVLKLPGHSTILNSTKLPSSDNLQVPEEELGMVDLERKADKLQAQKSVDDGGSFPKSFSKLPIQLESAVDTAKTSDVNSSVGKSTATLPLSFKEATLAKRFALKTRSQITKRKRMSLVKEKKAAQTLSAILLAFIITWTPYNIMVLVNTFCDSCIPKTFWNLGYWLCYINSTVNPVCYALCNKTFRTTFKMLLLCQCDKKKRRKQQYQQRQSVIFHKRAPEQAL

With `O=C(c1ccc(SC(F)(F)F)cc1)N1CCN2C(=O)c3ccccc3C12c1ccc(F)cc1` (stereo unspecified), the Activity in test [1] is -0.2%. Further, in test [2], the 50% inhibitory concentration (IC50) stood at 1.3 µM.

Turning to `Cc1ccc(C23c4ccccc4C(=O)N2CCN3C(=O)c2ccc(C(F)(F)F)cc2)cc1` (stereo unspecified), the IC50 in test [2] was greater than 10 µM.

As to `Cc1ccc(C(=O)N2CCN3C(=O)c4ccccc4C23c2ccc(F)cc2)cc1` (stereo unspecified), in test [2], the IC50 is greater than 10 µM.

Regarding `Cc1ccc(C23c4ccccc4C(=O)N2CCN3C(=O)c2cccc(C(F)(F)F)c2)cc1` (stereo unspecified), the IC50 in test [2] was greater than 10 µM.

For the molecule `O=C(c1ccc(OC(F)(F)F)cc1)N1CCN2C(=O)c3ccccc3C12c1ccc(F)cc1` (stereo unspecified), the IC50 in test [2] was greater than 10 µM.

With `O=C(c1cc(F)cc(F)c1)N1CCN2C(=O)c3ccccc3C12c1ccccc1` (stereo unspecified), in test [1], the Activity is -2.2%. Further, the IC50 in test [2] was 3.8 µM.

For `O=C(c1ccc(SC(F)(F)F)cc1)N1CCN2C(=O)c3ccccc3C12c1ccccc1` (stereo unspecified), the Activity in test [1] is 0.5%. For the same molecule, the IC50 in test [2] was determined as 1.38 µM.

As for `O=C(c1cc(F)cc(F)c1)N1CCN2C(=O)c3ccccc3C12c1ccc(Cl)cc1` (stereo unspecified), the Activity in test [1] was determined as 2.8%. Also, in test [2], the 50% inhibitory concentration (IC50) was 1 µM.

Consider `O=C(c1cccc(C(F)(F)F)c1)N1CCN2C(=O)c3ccccc3C12c1ccccc1` (stereo unspecified), for which the Activity in test [1] was -0.7%. Further, the IC50 in test [2] stood at 3.02 µM.

Regarding `O=C(c1ccc(C(F)(F)F)cc1)N1CCN2C(=O)c3ccccc3C12c1ccc(Cl)cc1` (stereo unspecified), the Activity in test [1] stood at 0.7%. In addition, in test [2], the IC50 is 2 µM.

Regarding `O=C(c1cc(F)cc(F)c1)N1CCN2C(=O)c3ccccc3C12c1ccc(F)cc1` (stereo unspecified), the IC50 in test [2] is greater than 10 µM.

In the case of `O=C(c1ccc(SC(F)(F)F)cc1)N1CCN2C(=O)c3ccccc3C12c1ccc(Cl)cc1` (stereo unspecified), in test [1], the Activity is -9.2%. Moreover, the half-maximal inhibitory concentration (IC50) in test [2] came out at 3 µM.

Regarding `Cc1ccc(C23c4ccccc4C(=O)N2CCN3C(=O)c2ccc(F)c(F)c2)cc1` (stereo unspecified), the Activity in test [1] was -6.8%. Also, the IC50 in test [2] stood at 2.6 µM.

In the case of `O=C(c1ccc(F)c(F)c1)N1CCN2C(=O)c3ccccc3C12c1ccc(F)cc1` (stereo unspecified), the IC50 in test [2] is greater than 10 µM.

Consider `O=C(c1ccc(C(F)(F)F)cc1)N1CCN2C(=O)c3ccccc3C12c1ccc(F)cc1` (stereo unspecified), for which the IC50 in test [2] is greater than 10 µM.

Regarding `O=C(c1ccc(OC(F)(F)F)cc1)N1CCN2C(=O)c3ccccc3C12c1ccccc1` (stereo unspecified), the Activity in test [1] worked out at 0.2%. Besides, the IC50 in test [2] stood at 4.47 µM.

As to `Cc1ccc(C(=O)N2CCN3C(=O)c4ccccc4C23c2ccc(C)cc2)cc1` (stereo unspecified), in test [2], the IC50 is greater than 10 µM.

On to `Cc1ccc(C(=O)N2CCN3C(=O)c4ccccc4C23c2ccc(Cl)cc2)cc1` (stereo unspecified), for which the Activity in test [1] was determined as 0.1%. In test [2], the IC50 was 2.6 µM.

In the case of `O=C(c1ccc(C(F)(F)F)cc1)N1CCN2C(=O)c3ccccc3C12c1ccccc1` (stereo unspecified), the Activity in test [1] was -2.4%. Moreover, the IC50 in test [2] turned out to be 1.95 µM.

Consider `O=C(c1ccc(F)cc1)N1CCN2C(=O)c3ccccc3C12c1ccccc1` (stereo unspecified), for which, in test [1], the Activity came out at 41%. Also, the IC50 in test [3] was greater than 30 µM; in test [4] it was greater than 30 µM; in test [2], 3.49 µM; in test [5] it was greater than 30 µM; in test [6], 5.67 µM; in test [7] it was greater than 30 µM.

Turning to `Cc1ccc(C23c4ccccc4C(=O)N2CCN3C(=O)c2cc(F)cc(F)c2)cc1` (stereo unspecified), in test [1], the Activity is -1.1%. Besides, the IC50 in test [2] is 2.3 µM.

On to `O=C(c1cccc(C(F)(F)F)c1)N1CCN2C(=O)c3ccccc3C12c1ccc(Cl)cc1` (stereo unspecified), for which the Activity in test [1] is -7.2%. Also, in test [2], the IC50 was found to be 4.9 µM.

In the case of `O=C(c1ccc(F)c(F)c1)N1CCN2C(=O)c3ccccc3C12c1ccc(Cl)cc1` (racemic), the Activity in test [1] was found to be 0.1%. Besides, the IC50 in test [3], in test [4], in test [5] and in test [7] was greater than 30 µM throughout.

Consider `Cc1ccc(C23c4ccccc4C(=O)N2CCN3C(=O)c2ccc(OC(F)(F)F)cc2)cc1` (stereo unspecified), for which the Activity in test [1] is -0.2%. Also, the IC50 in test [2] is 3.5 µM.

As to `O=C(c1cc(Cl)cc(Cl)c1)N1CCN2C(=O)c3ccccc3C12c1ccccc1` (stereo unspecified), in test [1], the Activity was 0%. For the same molecule, the IC50 in test [2] stood at 5.75 µM.

As to `Cc1ccc(C23c4ccccc4C(=O)N2CCN3C(=O)c2ccc(SC(F)(F)F)cc2)cc1` (stereo unspecified), the Activity in test [1] amounted to 4.1%. The IC50 in test [2] was determined as 4.1 µM.

As to `O=C(c1cccc(C(F)(F)F)c1)N1CCN2C(=O)c3ccccc3C12c1ccc(F)cc1` (stereo unspecified), the Activity in test [1] is -2.4%. In addition, the half-inhibitory concentration (IC50) in test [2] was 2.1 µM.

Take `O=C(c1ccc(OC(F)(F)F)cc1)N1CCN2C(=O)c3ccccc3C12c1ccc(Cl)cc1` (stereo unspecified): the Activity in test [1] is -5.3%. Moreover, the IC50 in test [2] is 2.3 µM.
